Assay results published in US20150119399A1, “BETA-CELL REPLICATION PROMOTING COMPOUNDS AND METHODS OF THEIR USE” (President and Fellows of Harvard College, priority 2012, published 2015).
Entries after “also recorded” stand apart in the source; their conditions may differ. Where two headings read alike, the source gives them in different places.

Columns and labels:
beta-cells = assay: beta-cell replication in dissociated rat islet cells (PDX-1/ki-67 imaging); assay type: cell-based; conditions: compound for 48 hours, relative to vehicle/DMSO control
Description: (§1) Rat islets were isolated and plated as previously described. In brief, rat islets were disassociated using 0.25% trypsin to obtain single cell suspension with occasional clusters of 2-3 cells. These cells were then plated in a 96-well format at a density of 80 k cells/well. The wells were pre-treated with conditioned media produced by the rat bladder carcinoma cell line 804G. After 48-hours, the cells were treated with compound at the indicated concentration or vehicle alone for 48 hours. The cells were then fixed and stained as previously described for the beta-cell marker PDX-1 and the replication marker ki-67. The beta-cell replication rate (the percentage of PDX-1^+ Cells that co-expressed ki-67) was quantified via automated imaging acquisition and analysis using a Cellomic ArrayScan. Each experimental was performed in replicas of four. p-values indicate a 2-tailed T-Test.
(§2) To quantify beta-cell replication rate, cells were identified as beta-cells if the contained both nuclear PDX-1 expression and cytoplasmic insulin staining. Replicating beta-cells were identified by the co-staining for ki-67. Alpha-cell replication was determined by determining the fraction of alpha-cells that co-expressed ki67. An alpha-cell was defined by the presence of cytoplasmic glucagon staining and the absence of nuclear PDX-1 staining. The fraction of dividing alpha-cells was determined by the proportion of alpha cells that co-expressed ki-67.

alpha-cells = assay: alpha-cell replication in dissociated rat islet cells (glucagon/ki-67 imaging); assay type: cell-based; conditions: compound for 48 hours
Description: as §1, §2

recombinant PDE5 = recombinant PDE5 (Homo sapiens, UniProt O76074); conditions: in vitro selectivity assay using recombinant PDE
From the text: Rows list the PDE inhibitors. Columns list the recombinant human PDE enzymes.

isolated rat islets = assay: in vitro islet insulin secretion assay, rat islets; conditions: for islet insulin secretion: isolated rat islets
human islets = assay: in vitro islet insulin secretion assay, human islets; assay type: cell-based
GLP-1R signaling = assay: glucose tolerance via GLP-1R signaling; conditions: FIGS. 15A-15C
diabetic DB mice = assay: glucose tolerance in diabetic DB mice; assay type: in vivo, mouse; conditions: for glucose tolerance: compound by itself
[1] = system: primary intestinal crypt culture; assay: endogenous GLP-1 secretion in primary intestinal crypt culture; conditions: compared to control
wild-type mice [2] = assay: glucose tolerance in wild-type mice; assay type: in vivo, mouse
wild-type mice [3] = assay: plasma GLP-1 levels in vivo; conditions: 30 minutes after treatment, 0.3 mg/kg Tadalafil, 0.25 mg/kg Dipyridamole, 0.45 mg/kg Vardenafil
[4] = plasma insulin levels in vivo after intraperitoneal glucose; conditions: 30 minutes after treatment and intraperitoneal (IP) delivery of glucose, compared to DMSO
[5] = system: diet-induced obesity (DIO) mice; assay: glucose tolerance in diet-induced obesity (DIO) mice; assay type: in vivo; conditions: diet-induced obesity (DIO) mouse model of human diabetes
[6] = co-administered with DPP-4 inhibitor Sitagliptin, wild-type mice (FIG. 11), Tadalafil data not shown
[7] = wild-type mice, compound by itself
[8] = wild-type mice, in combination with Exendin-4

| SMILES | beta-cell replication (percentage of PDX-1+ cells that co-expressed ki-67) (beta-cells) | alpha-cell replication (fraction of alpha-cells that co-expressed ki67) (alpha-cells) | islet insulin secretion (isolated rat islets) | glucose tolerance via GLP-1R signaling (GLP-1R signaling) | glucose tolerance / blood glucose levels (wild-type mice [2]; [6]) | glucose tolerance (wild-type mice [2]; [7]) | glucose tolerance / blood glucose levels (wild-type mice [2]; [8]) | plasma GLP-1 levels (wild-type mice [3]) | also measured |
| --- | --- | --- | --- | --- | --- | --- | --- | --- | --- |
| CN(C(=O)CCCOc1ccc2[nH]c(=O)ccc2c1)C1CCCCC1 [Cilostamide] | enhanced beta-cell replication | enhanced alpha-cell replication |  |  |  |  |  |  |  |
| OCCN(CCO)c1nc(N2CCCCC2)c2nc(N(CCO)CCO)nc(N3CCCCC3)c2n1 [Dipyridamole, 2,6-bis-(diethanolamino)-4,8-dipiperidino-(5,4-d)-pyrimidine] | enhanced beta-cell replication; also recorded: double replication effect | does not; also recorded: did not | significantly enhanced insulin secretion | improve glucose tolerance via GLP-1R signaling | acts in concert with dipeptidyl peptidase-4 (DPP-4) inhibitor Sitagliptin to improve glucose tolerance; also recorded: act in concert with Sitagliptin to improve glucose tolerance and lower blood glucose levels | enhances glucose tolerance | enhances glucose tolerance; also recorded: acts additively with Exendin-4 to lower blood glucose levels | significantly increase plasma GLP-1 levels | inhibition of PDE5 (inhibitor class) (recombinant PDE5): effective inhibitor (the inhibitor exhibits at least 50% inhibition of enzymatic activity in an in vitro selectivity assay using a recombinant PDE); islet insulin secretion (isolated rat islets; listed as dipyridamole): enhances insulin secretion; effect of Exendin-4 on glucose-stimulated insulin secretion (isolated rat islets; rat islets, in combination with Exendin-4): enhances the effect of Exendin-4 on glucose-stimulated insulin secretion; beta-cell replication (percentage of PDX-1+ cells that co-expressed ki-67) (beta-cells; listed as Dioyridamole): enhanced beta-cell replication; islet insulin secretion (human islets): significantly enhanced insulin secretion; effect of Exendin-4 on glucose-stimulated insulin secretion (human islets; in combination with Exendin-4): enhances the effect of Exendin-4 on glucose-stimulated insulin secretion; islet insulin secretion (human islets; listed as dipyridamole): enhances insulin secretion; glucose tolerance (diabetic DB mice): enhances glucose tolerance; glucose tolerance (diabetic DB mice; listed as dipyridamole): improves glucose tolerance; glucose tolerance / blood glucose levels (diabetic DB mice; in combination with Exendin-4): enhances glucose tolerance; also recorded: acts additively with Exendin-4 to lower blood glucose levels; glucose tolerance / blood glucose levels (diabetic DB mice; in combination with Exendin-4, listed as dipyridamole): enhances glucose tolerance; endogenous GLP-1 secretion [1]: at least about twice; glucose tolerance (wild-type mice [2]; wild-type mice, compound by itself, listed as dipyridamole): improves glucose tolerance; glucose tolerance / blood glucose levels (wild-type mice [2]; wild-type mice, in combination with Exendin-4, listed as dipyridamole): enhances glucose tolerance; glucose tolerance (wild-type mice [2]; wild-type mice, oral administration): improves glucose tolerance |
| CN1CC(=O)N2[C@H](c3ccc4c(c3)OCO4)c3[nH]c4ccccc4c3C[C@@H]2C1=O [Tadalafil, (6R-trans)-6-(1,3-benzodioxol-5-yl)-2,3,6,7,12,12a-hexahydro-2-methyl-pyrazino[1′,2′:1,6]pyrido[3,4-b]indole-1,4-dione] | did not increase beta-cell replication |  | do not enhance islet insulin secretion; also recorded: Neither Tadalafil (FIG. 4A) nor Vardenafil (FIG. 4B) significantly enhanced insulin secretion | improve glucose tolerance via GLP-1R signaling | act in concert with Sitagliptin to improve glucose tolerance and lower blood glucose levels | improves glucose tolerance | acts additively with Exendin-4 to lower glucose levels | significantly increase plasma GLP-1 levels | plasma insulin levels [4]: increased plasma insulin levels; also recorded: significantly increase plasma insulin levels; glucose tolerance [5]: improves glucose tolerance |
| COc1cc2c(cc1OC)-c1c/c(=N\c3c(C)cc(C)cc3C)n(C)c(=O)n1CC2 [Trequinsin] | enhanced beta-cell replication | enhanced alpha-cell replication |  |  |  |  |  |  |  |
| COc1cc(-c2ccc(=O)[nH]n2)ccc1OC(F)F [Zardaverine, 6-[4-(Difluoromethoxy)-3-methoxyphenyl]-3(2H)-pyridazinone] | enhanced beta-cell replication | enhanced alpha-cell replication |  |  |  |  |  |  |  |
